Measurements from patent publication US10080779B2, “Method for increasing the expression of anti-microbial peptides by keratinocytes comprising administering a composition comprising IL-17, TNF-alpha and OSM” (Universite D'Angers, priority 2004, dated 2018).

Key:
NHEK [1] = assay: Cytokine measurement by ELISA in NHEK culture supernatants; assay type: cell-based, human; conditions: 10 ng/ml, 96 h
Experimental: NHEK were obtained as previously described, from surgical samples of healthy breast skin (Boniface et al, 2005). NHEK were cultured to 80% of confluence and then starved for 24 h in Keratinocyte SFM without addition of growth factors before stimulation. Cells were stimulated with or without 10 ng/ml of recombinant IL-17A, OSM, TNFα, IL-22 and IL-1α alone or in combination (R&D systems Europe, Lille, France) during 24 h for mRNA quantification or 48 h to 96 h for protein quantification.
Levels of BD2, BD3 and CXCL8 were determined using Human ELISA development kit (Peprotech), and CXCL1 and CXCL5 with DuoSet reagents (R&D Systems Europe).

RHE [2] = assay: RHE histology and immunohistochemistry (Example 14); assay type: cell-based, human; conditions: single cytokines, 72 h
Experimental: (§1) Normal human epidermal keratinocytes (NHEK) were obtained as previously described, from surgical samples of healthy breast skin (Boniface et al, 2005). NHEK were cultured to 80% of confluence allowing the expression of a large panel of keratinocyte differentiation markers, and then starved for 24 h in Keratinocyte SFM containing 0.03 mM Ca^2+ (Invitrogen Life Technologies, Cergy Pontoise, France) before stimulation. Confluent differentiated cells were stimulated with or without recombinant IL-17A, OSM, TNFα, IL-22 and IL-1α alone at maximum effective concentrations (reported previously around 10 ng/ml (Boniface et al, 2005 and Boniface et al, 2007)) or in combination (R&D systems Europe, Lille, France) during 2 h to 72 h for mRNA quantification. RHE were generated on polycarbonate culture inserts, from surgical samples of paediatric foreskins as previously described (Guenou et al., 2009). RHE were stimulated with or without recombinant IL-17A, OSM, TNFα, IL-22 and IL-1α alone or in combination, with or without a Janus protein Tyrosine Kinases (JAKs) inhibitor 10 μM (Calbiochem, 420099), during 24 h for mRNA quantification or during 72 h for immunohistological analysis.
RHE were washed and fixed with formaldehyde solution. Fixed tissues were dehydrated with increasing ethanol concentrations, embedded in paraffin and sections were carried out using a microtome (4 μm thickness). The sections were deparaffinised, washed and incubated with hydrogen peroxide. The sections were incubated with anti-CK10 (SantaCruz, SC-23877), anti-LOR (Eurogentec, PRB-145P), anti-FLG (SantaCruz, SC-66192), anti-IVL (Biomedical Technologies, BT-601), anti-S100A7 (Clinisciences, IMG-409A) and then detected using a biotin-conjugated secondary antibody (Vector, RTU vectastain universal quick kit, PK-7800). After peroxidase-conjugated streptavidine (Vector, RTU vectastain universal quick kit, PK-7800) and peroxidase substrate addition (Dako, Substrat hyper-sensible AEC+), nuclei were counter-stained using a solution of hematoxylin. Sections were observed using a NIKON E400 microscope. The images were captured using a NIKON DS-Ril and processed with NIS-Elements 3.10 software.

STAT3 = STAT3 phosphorylation in NHEK (Western blot); assay type: cell-based, human
Experimental: (§2) For STAT3 and MAPK phosphorylation, NHEK were stimulated for 15 min in the presence of the indicated cytokine. Cells were lysed in SDS sample buffer (62.5 mM Tris-HCl pH 6.8, 2% SDS, 10% glycerol, 50 mM DTT, 0.1% bromophenol blue), sonicated and then submitted to SDS-PAGE and transferred onto an Immobilon membrane. The membranes were subsequently incubated overnight with the primary antibody, before being incubated with the appropriate peroxidase-labelled secondary antibody for 60 min. The reaction was visualized by chemiluminescence according to the manufacturer's instructions. Membranes were stripped in 0.1 M glycine pH 2.8 for 2 h and neutralized in 1 M Tris-HCl pH 7.6 before reblotting. For neutralizing experiments, NHEK were incubated with the appropriate antibodies for 2 h before stimulation.

RHE [3] = assay: KDM mRNA in reconstituted human epidermis (RT-PCR); assay type: cell-based; conditions: 24 h
Experimental: as §1
(§3) NHEK, RHE and murine skin total RNA were isolated using NucleoSpin® RNA II kit (Macherey-Nagel, Hoerdt, France) and reverse-transcribed with SuperScript® II Reverse Transcriptase (Invitrogen Life Technologies) according to the manufacturer's instructions. Quantitative real time PCR was carried out using the LightCycler-FastStart DNA Master SYBR® Green I kit on LightCycler 480 (Roche Diagnostics, Meylan, France). The reaction components were 1×DNA Master Mix, and 0.5 μM of HPLC purified sense and anti-sense oligonucleotides purchased from Eurogentec (Eurogentec France, Angers, France), designed using Primer3 software. The stability of the housekeeping gene expression has been assessed by using GeNorm algorithm. […] Thus samples were normalized to G3PDH housekeeping gene and reported according to the ΔΔCT method as RNA fold increase: 2^ΔΔCT=2^ΔCT sample−ΔCT reference.

[4] = test system: reconstituted human epidermis (RHE); assay: Reconstituted human epidermis model, histology and immunohistochemistry (OSM); assay type: cell-based
Experimental: For histological and immunohistochemical studies, RHE, grown for 12 days at the air-medium interface, were purchased from SkinEthic Laboratories (Nice, France). […] As recommended, RHE were grown for 1 day in SkinEthic growth medium prior to stimulation in the absence or presence of OSM for 4 days. They were then fixed in a balanced 10% formalin solution and embedded in paraffin. Four micron vertical sections were stained with heamatoxylin/eosin or with specific Ab and peroxidase-conjugated Antibodies, and counterstained with haematoxylin according to standard protocols (Rosdy, Bertino et al. 1997). Anti-K10 keratin and anti-filaggrin monoclonal Antibodies were from Lab Vision Corporation (Fremont, Calif., USA).

MAP kinase (ERK1/2) = assay: MAP kinase phosphorylation in NHEK (Western blot); assay type: cell-based, human; conditions: NHEK stimulated with OSM
Experimental: as §2

NHEK [5] = assay: Keratinocyte differentiation marker (KDM) mRNA in NHEK (RT-PCR); assay type: cell-based, human; conditions: 24 h
Experimental: as §1, §3

OSM: human recombinant oncostatin M, cytokine of the IL-6 family
BD3 production (NHEK [1]): significant increase | CXCL1, CXCL5, CXCL8 production, single cytokines (NHEK [1]): discrete effect | CK10, LOR and FLG expression (immunohistology) (RHE [2]; RHE): decreases expression of CK10, LOR and FLG | IVL expression (immunohistology) (RHE [2]; RHE): strongly | S100A7 expression (immunohistology) (RHE [2]; RHE): strongly induced | RHE histology (RHE [2]): significant keratinocyte hyperplasia | STAT3 tyrosine phosphorylation (P-STAT3) (STAT3; NHEK stimulated 15 min with the cytokine): strong induction of tyrosine phosphorylation | OSM concentration down to which plateau P-STAT3 level is still present (STAT3; NHEK, 15 min): ≥ 3 ng/mL | Expression of KDM mRNA (CK10, CK1, LOR, FLG) (RHE [3]): most active cytokines | S100A7 mRNA expression (RHE [3]): strongly induced | Hyperplasia / overall thickness of RHE ([4]; 10 ng/ml OSM, 4 days): triggered the hyperplasia of the keratinocytes layers | Ki67 expression ([4]; RHE treated with OSM): not induced | Filaggrin and keratin 10 expression (immunohistochemistry) ([4]; RHE, 10 ng/ml OSM, 4 days): decrease of filaggrin and keratin 10 expression | S100A7 protein (immunohistochemistry) ([4]; RHE, 10 ng/ml OSM, 4 days): S100A7 protein up-regulation | MAP kinase phosphorylation (MAP kinase (ERK1/2)): quickly increased the MAP kinase phosphorylation | Rank as contributor to keratinocyte differentiation inhibition (removal from M5) (NHEK [5]): most potent cytokines for keratinocyte differentiation inhibition | mRNA expression of CK1, DSG1, DSC1, FLG, CLSP, LOR and FABPS (NHEK [5]; single cytokines 10 ng/ml): downregulate mRNA expression
